Data published in US12281079B2, “Quinoline derivatives, processes for their preparation and uses thereof for the treatment of cancer” (Lead Discovery Center GmbH, priority 2019, dated 2025).
Where a name gives a salt, the structure may show the parent alone.

Experiments:
[1] = target: mitochondrial RNA polymerase (POLRMT) (Mus musculus, UniProt Q8BKF1); assay: Homogeneous TR-FRET assay for mitochondrial transcription activity; assay type: biochemical; conditions: homogeneous TR-FRET assay according to Example 4
How it was run: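 Read-out is TR-FRET (ex 340, em 665 nm) from two adjacent labelled DNA probes annealing to the 407 bp transcript after EDTA/700 mM NaCl stop. Reaction: murine POLRMT, TFAM, TFB2M and LSP plasmid template, compound 10 μM or serial dilution, 10 min rt preincubation, 500 μM each nucleotide, 2 h rt.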

[2] = test system: mitochondrial transcription (7S RNA) in HeLa cells; assay: Quantitative real time-PCR assay of inhibition of mitochondrial transcription (7S RNA) in HeLa cells; assay type: cell-based; conditions: Homo sapiens, 4 h compound incubation, according to Example 5, read-out: cellular qPCR assay
Description: Quantitative real-time PCR (qRT-PCR), based on the TaqMan™ (Thermo Fisher Scientific, Waltham Mass.) technology, was carried out essentially as described in Held et al. (1996). HeLa cells were plated one day before compound treatment in RPMI medium supplemented with 10% Fetal Calf Serum and 2 mM L-glutamine. Cells were incubated with dilution series of compounds or vehicle (DMSO) for 4 h, prior to harvest and extraction of the RNA using the RNeasy Mini Kit (Qiagen, Hilden D), according to the manufacturer's instructions. RNA concentrations were measured spectroscopically, using a NanoDrop-2000 (Thermo Fisher Scientific, Waltham Mass.) and normalized prior to cDNA synthesis, using a ‘High-Capacity cDNA Reverse Transcription Kit’ (Thermo Fisher Scientific, Waltham Mass.). qRT-PCR was carried out using the ‘TaqMan Fast Advance Master Mix’ (Thermo Fisher Scientific, Waltham Mass.) on a 7500 Fast Real-Time PCR machine (Applied Biosystems, Foster City Calif.)
For these measurements, three genes were used to compare the effect of the scrutinized compounds in relation to their concentration. The POLRMT-gene was used to detect potential influences on nuclear transcription. Mitochondrial transcription in vivo was monitored by measurements 7S RNA. The TBP (TATA-box binding protein) gene was employed as the control (housekeeping gene) during qRT-PCR. The short-lived mitochondrial 7S RNA, which is not post-transcriptionally stabilized, allowed us to monitor rapid changes in mitochondrial transcription activity following compound addition. Biological triplicates were analyzed using the comparative CT Method (ΔΔCt) method (Bubner and Baldwin, 2004) and reported as Rq % values (Rq=Relative quantification=2−ΔΔCt).

mitochondrial RNA polymerase (POLRMT), sequence (Q8BKF1 42-1207): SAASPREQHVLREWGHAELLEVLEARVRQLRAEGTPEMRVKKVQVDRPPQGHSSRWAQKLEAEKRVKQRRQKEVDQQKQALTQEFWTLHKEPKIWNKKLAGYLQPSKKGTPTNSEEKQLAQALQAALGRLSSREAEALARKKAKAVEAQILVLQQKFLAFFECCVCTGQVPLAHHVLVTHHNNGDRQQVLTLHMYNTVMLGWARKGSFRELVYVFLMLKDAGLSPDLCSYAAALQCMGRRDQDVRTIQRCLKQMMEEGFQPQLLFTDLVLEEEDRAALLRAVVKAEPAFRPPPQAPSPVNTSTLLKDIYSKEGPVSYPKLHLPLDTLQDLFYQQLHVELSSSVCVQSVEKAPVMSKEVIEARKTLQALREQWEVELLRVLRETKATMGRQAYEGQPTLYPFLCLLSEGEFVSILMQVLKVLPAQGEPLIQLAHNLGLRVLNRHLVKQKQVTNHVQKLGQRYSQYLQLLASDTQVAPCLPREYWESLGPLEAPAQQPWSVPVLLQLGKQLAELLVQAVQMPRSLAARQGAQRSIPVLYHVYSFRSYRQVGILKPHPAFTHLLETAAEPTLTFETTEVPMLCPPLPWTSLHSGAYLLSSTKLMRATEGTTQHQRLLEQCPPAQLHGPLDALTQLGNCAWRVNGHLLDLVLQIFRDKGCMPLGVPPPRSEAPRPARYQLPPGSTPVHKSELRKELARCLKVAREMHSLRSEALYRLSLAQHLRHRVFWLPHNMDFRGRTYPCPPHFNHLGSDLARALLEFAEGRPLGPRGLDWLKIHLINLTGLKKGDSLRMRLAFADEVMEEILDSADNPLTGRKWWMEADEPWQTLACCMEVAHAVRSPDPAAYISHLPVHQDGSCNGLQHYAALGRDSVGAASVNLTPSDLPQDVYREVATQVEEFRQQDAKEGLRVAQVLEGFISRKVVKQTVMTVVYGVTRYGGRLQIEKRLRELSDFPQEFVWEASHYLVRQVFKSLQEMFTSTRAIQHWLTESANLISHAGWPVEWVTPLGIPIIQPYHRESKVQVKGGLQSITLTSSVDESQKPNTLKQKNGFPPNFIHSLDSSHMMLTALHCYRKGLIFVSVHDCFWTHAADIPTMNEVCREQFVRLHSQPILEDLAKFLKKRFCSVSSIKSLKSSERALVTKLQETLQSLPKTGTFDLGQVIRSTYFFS

IC50 [1] | IC50 [2] | SMILES
20 to 100 nM | 50 to 500 nM | C[C@@H](Oc1ccc2c(-c3ccc(F)cc3Cl)ccnc2c1)C(=O)N1CCC(C(=O)O)CC1 [Compound 24, 1-[(2R)-2-[[4-(2-chloro-4-fluoro-phenyl)-7-quinolyl]oxy]propanoyl]piperidine-4-carboxylic acid]
20 to 100 nM | 10 to 50 nM | Cc1ccccc1-c1cc(Cl)nc2cc(O[C@H](C)C(=O)N3CCC[C@H](C(=O)O)C3)ccc12 [Compound 25, (3S)-1-[(2R)-2-[[2-chloro-4-(o-tolyl)-7-quinolyl]oxy]propanoyl]piperidine-3-carboxylic acid]
20 to 100 nM | 50 to 500 nM | C[C@@H](Oc1ccc2c(-c3ccc(F)cc3Cl)ccnc2c1)C(=O)Nc1cccc(C(=O)O)c1 [Compound 26, 3-[[(2R)-2-[[4-(2-chloro-4-fluoro-phenyl)-7-quinolyl]oxy]propanoyl]amino]benzoic acid]
20 to 100 nM | 500 to 5000 nM | CCOC(=O)[C@H]1CCCN(C(=O)[C@@H](C)Oc2ccc3c(-c4ccc(F)cc4Cl)ccnc3c2)C1 [Compound 27, ethyl (3S)-1-[(2R)-2-[[4-(2-chloro-4-fluoro-phenyl)-7-quinolyl]oxy]propanoyl]piperidine-3-carboxylate]
100 to 1000 nM | 10 to 50 nM | CCC(=O)N1CCN(C(=O)[C@@H](C)Oc2ccc3c(-c4ccc(F)cc4Cl)ccnc3c2)CC1 [Compound 28, (R)-2-((4-(2-chloro-4-fluorophenyl)quinolin-7-yl)oxy)-1-(4-propionylpiperazin-1-yl)propan-1-one]
100 to 1000 nM | < 10 nM | C[C@@H](Oc1ccc2c(-c3ccccc3Cl)ccnc2c1)C(=O)OC(C)(C)C [Compound 29, tert-butyl (2R)-2-[[4-(2-chlorophenyl)-7-quinolyl]oxy]propanoate]
100 to 1000 nM | 10 to 50 nM | C[C@@H](Oc1ccc2c(-c3ccc(F)cc3Cl)ccnc2c1)C(=O)N1CCC[C@H](C#N)C1 [Compound 30, (3S)-1-[(2R)-2-[[4-(2-chloro-4-fluoro-phenyl)-7-quinolyl]oxy]propanoyl]piperidine-3-carbonitrile]
100 to 1000 nM | < 10 nM | Cc1cc(-c2ccccc2C)c2ccc(O[C@H](C)C(=O)N3CCC[C@H](C(=O)O)C3)cc2n1 [Compound 31, (3S)-1-[(2R)-2-[[2-methyl-4-(o-tolyl)-7-quinolyl]oxy]propanoyl]piperidine-3-carboxylic acid]
100 to 1000 nM | 10 to 50 nM | CC(C)N(C)C(=O)[C@@H](C)Oc1ccc2c(-c3ccc(F)cc3Cl)ccnc2c1 [Compound 32, (2R)-2-[[4-(2-chloro-4-fluoro-phenyl)-7-quinolyl]oxy]-N-isopropyl-N-methyl-propanamide]
100 to 1000 nM | 10 to 50 nM | C[C@@H](Oc1ccc2c(-c3ccccc3Cl)cc(Cl)nc2c1)C(=O)N1CCC[C@H](C(=O)O)C1 [Compound 34, (3S)-1-[(2R)-2-[[2-chloro-4-(2-chlorophenyl)-7-quinolyl]oxy]propanoyl]piperidine-3-carboxylic acid]
100 to 1000 nM | < 10 nM | Cc1cc(F)ccc1-c1cc(Cl)nc2cc(O[C@H](C)C(=O)N3CCC[C@H](C(=O)O)C3)ccc12 [Compound 35, (3S)-1-[(2R)-2-[[2-chloro-4-(4-fluoro-2-methyl-phenyl)-7-quinolyl]oxy]propanoyl]piperidine-3-carboxylic acid]
100 to 1000 nM | 50 to 500 nM | CC(C)OC(=O)[C@@H](C)Oc1ccc2c(-c3ccccc3Cl)ccnc2c1 [Compound 36, (R)-isopropyl 2-((4-(2-chlorophenyl)quinolin-7 yl)oxy)propanoate FA salt]
100 to 1000 nM | 10 to 50 nM | CNC(=O)[C@H]1CCCN(C(=O)[C@@H](C)Oc2ccc3c(-c4ccc(F)cc4Cl)ccnc3c2)C1 [Compound 38, (3S)-1-[(2R)-2-[[4-(2-chloro-4-fluoro-phenyl)-7-quinolyl]oxy]propanoyl]-N-methyl-piperidine-3-carboxamide]
100 to 1000 nM | 50 to 500 nM | C[C@@H](Oc1ccc2c(-c3ccc(F)cc3Cl)ccnc2c1)C(=O)N1CC[C@@H](CC(=O)O)C1 [Compound 39, 2-[(3S)-1-[(2R)-2-[[4-(2-chloro-4-fluoro-phenyl)-7-quinolyl]oxy]propanoyl]pyrrolidin-3-yl]acetic acid]
100 to 1000 nM | 50 to 500 nM | C[C@@H](Oc1ccc2c(-c3ccc(F)cc3Cl)ccnc2c1)C(=O)N1CC[C@H](CC(=O)O)C1 [Compound 40, 2-[(3R)-1-[(2R)-2-[[4-(2-chloro-4-fluoro-phenyl)-7-quinolyl]oxy]propanoyl]pyrrolidin-3-yl]acetic acid]
100 to 1000 nM | 500 to 5000 nM | CCOC(=O)[C@H]1CCCN(C(=O)[C@@H](C)Oc2ccc3c(-c4ccccc4Cl)cc(F)nc3c2)C1 [Compound 41, ethyl (3S)-1-[(2R)-2-[[4-(2-chlorophenyl)-2-fluoro-7-quinolyl]oxy]propanoyl]piperidine-3-carboxylate]
100 to 1000 nM | 50 to 500 nM | C[C@@H](Oc1ccc2c(-c3ccc(F)cc3Cl)ccnc2c1)C(=O)N1CCCC1 [Compound 42, (2R)-2-[[4-(2-chloro-4-fluoro-phenyl)-7-quinolyl]oxy]-1-pyrrolidin-1-yl-propan-1-one]
100 to 1000 nM | 50 to 500 nM | C[C@@H](Oc1ccc2c(-c3ccc(F)cc3Cl)ccnc2c1)C(=O)N(C)C [Compound 45, (2R)-2-[[4-(2-chloro-4-fluoro-phenyl)-7-quinolyl]oxy]-N,N-dimethyl-propanamide]
100 to 1000 nM | 50 to 500 nM | O=C(O)[C@H]1CCCN(C(=O)COc2ccc3c(-c4ccccc4Cl)ccnc3c2)C1 [Compound 46, (3S)-1-[2-[[4-(2-chlorophenyl)-7-quinolyl]oxy]acetyl]piperidine-3-carboxylic acid]
100 to 1000 nM | 10 to 50 nM | C[C@@H](Oc1ccc2c(-c3ccc(F)cc3Cl)ccnc2c1)C(=O)NC(C)(C)C [Compound 47, (2R)-N-tert-butyl-2-[[4-(2-chloro-4-fluoro-phenyl)-7-quinolyl]oxy]propanamide]
100 to 1000 nM | 50 to 500 nM | CC(C)NC(=O)[C@@H](C)Oc1ccc2c(-c3ccccc3Cl)ccnc2c1 [Compound 48, (2R)-2-[[4-(2-chlorophenyl)-7-quinolyl]oxy]-N-isopropyl-propanamide]
100 to 1000 nM | 10 to 50 nM | CCOC(=O)C[C@H]1CCCN(C(=O)[C@@H](C)Oc2ccc3c(-c4ccccc4C)cc(C)nc3c2)C1 [Compound 49, ethyl 2-[(3R)-1-[(2R)-2-[[2-methyl-4-(o-tolyl)-7-quinolyl]oxy]propanoyl]-3-piperidyl]acetate]
100 to 1000 nM | 10 to 50 nM | CCOC(=O)[C@@H](C)Oc1ccc2c(-c3ccccc3Cl)ccnc2c1 [Compound 50, ethyl (2R)-2-[[4-(2-chlorophenyl)-7-quinolyl]oxy]propanoate]
100 to 1000 nM | 10 to 50 nM | Cc1ccccc1-c1cc(Cl)nc2cc(O[C@H](C)C(=O)N3CCC[C@H](C(N)=O)C3)ccc12 [Compound 52, (3S)-1-[(2R)-2-[[2-chloro-4-(o-tolyl)-7-quinolyl]oxy]propanoyl]piperidine-3-carboxamide]
100 to 1000 nM | 10 to 50 nM | C[C@@H](Oc1ccc2c(-c3ccccc3Cl)ccnc2c1)C(=O)N1CCCCC1 [Compound 53, (2R)-2-[[4-(2-chlorophenyl)-7-quinolyl]oxy]-1-(1-piperidyl)propan-1-one]
